Values quoted from earlier work in patent publication WO2011084962A1, “Analogs of dehydrophenylahistins” (Nereus Pharmaceuticals Inc, priority 2010, dated 2011).

Assays:
[1] = system: neovessels in non-neoplastic tissue; details: in vivo
[2] = system: choroidal neovascularization; details: in vivo
[3] = system: retinal neovascularization; details: occurs during proliferative retinopathy
[4] = system: VEGF induced retinal neovascularization; details: in vivo
[5] = system: cell cycle progression in the M phase

Row | Structure (SMILES) | inhibition of cell cycle progression in the M phase [5] | effect on the microtubule assembly (microtubule assembly) | also measured
1 | COc1ccc(/C=C\c2cc(OC)c(OC)c(OC)c2)cc1O [Combretastatin A-4] |  |  | disruption of neovessels in non-neoplastic tissue [1]: cause the disruption of neovessels in non-neoplastic tissue
2 | COc1ccc(/C=C\c2cc(OC)c(OC)c(OC)c2)cc1OP(=O)(O)O [CA-4P] |  |  | inhibition of development and/or partial regression of choroidal neovascularization [2]: inhibit the development and/ or cause partial regression of choroidal neovascularization; inhibition of retinal neovascularization [3]: inhibit the retinal neovascularization that occurs during proliferative retinopathy; suppression of the development of VEGF induced retinal neovascularization [4]: suppress the development of VEGF induced retinal neovascularization
3 | CC(C)=CCc1[nH]c2ccccc2c1C[C@@H]1NC(=O)[C@@H]2CCCN2C1=O [tryprostatin B] | inhibited cell cycle progression in the M phase | affect the microtubule assembly | 
4 | COc1ccc2c(C[C@@H]3NC(=O)[C@@H]4CCCN4C3=O)c(CC=C(C)C)[nH]c2c1 [tryprostatin A] | inhibited cell cycle progression in the M phase | affect the microtubule assembly | 
